Experimental data published in patent US20230049952A1, “METHODS AND COMPOUNDS FOR RESTORING MUTANT P53 FUNCTION” (PMV Pharmaceuticals, Inc., priority 2020, published 2023).

Tested on: p53 signaling pathway in MT373 tumors
Test: MT373 syngeneic sarcoma model: mouse p53 signaling pathway profiling panel
Type: in vivo
Details: MT373 tumors

**Q.** What does the source list for `CCn1c(C#CCNc2ccccc2)cc2cc(CNC3CCN(C)CC3)ccc21` [Compound 1, 1-Anilino-3-{1-ethyl-5-[(1-methyl-4-piperidylamino)methyl]-1H-indol-2-yl}-2-propyne]?
**A.** Wt1 mRNA, Fold Increase Over Vehicle Control or Percent Reduction Compared to Vehicle Control (%) (75 mg/kg BIDx1, 72 h): 23.33 fold or %; Zmat3 mRNA, Fold Increase Over Vehicle Control or Percent Reduction Compared to Vehicle Control (%) (75 mg/kg BIDx1, 72 h): 1.10 fold or %; Actb* mRNA (housekeeping or reference gene), Fold Increase Over Vehicle Control or Percent Reduction Compared to Vehicle Control (%) (150 mg/kg BIDx1, 8 h): 1.00 fold or %; B2m* mRNA (housekeeping or reference gene), Fold Increase Over Vehicle Control or Percent Reduction Compared to Vehicle Control (%) (150 mg/kg BIDx1, 8 h): 1.05 fold or %; Gapdh* mRNA (housekeeping or reference gene), Fold Increase Over Vehicle Control or Percent Reduction Compared to Vehicle Control (%) (150 mg/kg BIDx1, 8 h): 1.02 fold or %; Gusb* mRNA (housekeeping or reference gene), Fold Increase Over Vehicle Control or Percent Reduction Compared to Vehicle Control (%) (150 mg/kg BIDx1, 8 h): 1.02 fold or %; Hsp90ab1* mRNA (housekeeping or reference gene), Fold Increase Over Vehicle Control or Percent Reduction Compared to Vehicle Control (%) (150 mg/kg BIDx1, 8 h): 9.13 fold or %; MGDC* (housekeeping or reference gene), Fold Increase Over Vehicle Control or Percent Reduction Compared to Vehicle Control (%) (150 mg/kg BIDx1, 8 h): 1.00 fold or %; Trp63 mRNA, Fold Increase Over Vehicle Control or Percent Reduction Compared to Vehicle Control (%) (150 mg/kg BIDx1, 8 h): 1.02 fold or %; Trp73 mRNA, Fold Increase Over Vehicle Control or Percent Reduction Compared to Vehicle Control (%) (150 mg/kg BIDx1, 8 h): 1.00 fold or %; Wt1 mRNA, Fold Increase Over Vehicle Control or Percent Reduction Compared to Vehicle Control (%) (150 mg/kg BIDx1, 8 h): 30.29 fold or %; Zmat3 mRNA, Fold Increase Over Vehicle Control or Percent Reduction Compared to Vehicle Control (%) (150 mg/kg BIDx1, 8 h): 6.69 fold or %; Actb* mRNA (housekeeping or reference gene), Fold Increase Over Vehicle Control or Percent Reduction Compared to Vehicle Control (%) (150 mg/kg BIDx1, 24 h): 1.11 fold or %; B2m* mRNA (housekeeping or reference gene), Fold Increase Over Vehicle Control or Percent Reduction Compared to Vehicle Control (%) (150 mg/kg BIDx1, 24 h): 1.11 fold or %; Gapdh* mRNA (housekeeping or reference gene), Fold Increase Over Vehicle Control or Percent Reduction Compared to Vehicle Control (%) (150 mg/kg BIDx1, 24 h): 14.16 fold or %; Gusb* mRNA (housekeeping or reference gene), Fold Increase Over Vehicle Control or Percent Reduction Compared to Vehicle Control (%) (150 mg/kg BIDx1, 24 h): 1.25 fold or %; Hsp90ab1* mRNA (housekeeping or reference gene), Fold Increase Over Vehicle Control or Percent Reduction Compared to Vehicle Control (%) (150 mg/kg BIDx1, 24 h): 24.42 fold or %; MGDC* (housekeeping or reference gene), Fold Increase Over Vehicle Control or Percent Reduction Compared to Vehicle Control (%) (150 mg/kg BIDx1, 24 h): 1.00 fold or %; Trp63 mRNA, Fold Increase Over Vehicle Control or Percent Reduction Compared to Vehicle Control (%) (150 mg/kg BIDx1, 24 h): 1.00 fold or %; Trp73 mRNA, Fold Increase Over Vehicle Control or Percent Reduction Compared to Vehicle Control (%) (150 mg/kg BIDx1, 24 h): 1.00 fold or %; Wt1 mRNA, Fold Increase Over Vehicle Control or Percent Reduction Compared to Vehicle Control (%) (150 mg/kg BIDx1, 24 h): 21.51 fold or %; Zmat3 mRNA, Fold Increase Over Vehicle Control or Percent Reduction Compared to Vehicle Control (%) (150 mg/kg BIDx1, 24 h): 6.17 fold; Actb* mRNA (housekeeping or reference gene), Fold Increase Over Vehicle Control or Percent Reduction Compared to Vehicle Control (%) (150 mg/kg BIDx1, 48 h): 1.04 fold or %; B2m* mRNA (housekeeping or reference gene), Fold Increase Over Vehicle Control or Percent Reduction Compared to Vehicle Control (%) (150 mg/kg BIDx1, 48 h): 1.20 fold or %; Gapdh* mRNA (housekeeping or reference gene), Fold Increase Over Vehicle Control or Percent Reduction Compared to Vehicle Control (%) (150 mg/kg BIDx1, 48 h): 27.30 fold or %; Gusb* mRNA (housekeeping or reference gene), Fold Increase Over Vehicle Control or Percent Reduction Compared to Vehicle Control (%) (150 mg/kg BIDx1, 48 h): 1.39 fold or %; Hsp90ab1* mRNA (housekeeping or reference gene), Fold Increase Over Vehicle Control or Percent Reduction Compared to Vehicle Control (%) (150 mg/kg BIDx1, 48 h): 19.96 fold or %; MGDC* (housekeeping or reference gene), Fold Increase Over Vehicle Control or Percent Reduction Compared to Vehicle Control (%) (150 mg/kg BIDx1, 48 h): 1.00 fold or %; Trp63 mRNA, Fold Increase Over Vehicle Control or Percent Reduction Compared to Vehicle Control (%) (150 mg/kg BIDx1, 48 h): 1.00 fold or %; Trp73 mRNA, Fold Increase Over Vehicle Control or Percent Reduction Compared to Vehicle Control (%) (150 mg/kg BIDx1, 48 h): 1.00 fold or %; Wt1 mRNA, Fold Increase Over Vehicle Control or Percent Reduction Compared to Vehicle Control (%) (150 mg/kg BIDx1, 48 h): 21.51 fold or %; Zmat3 mRNA, Fold Increase Over Vehicle Control or Percent Reduction Compared to Vehicle Control (%) (150 mg/kg BIDx1, 48 h): 1.36 fold or %; Actb* mRNA (housekeeping or reference gene), Fold Increase Over Vehicle Control or Percent Reduction Compared to Vehicle Control (%) (150 mg/kg BIDx1, 72 h): 1.04 fold or %; B2m* mRNA (housekeeping or reference gene), Fold Increase Over Vehicle Control or Percent Reduction Compared to Vehicle Control (%) (150 mg/kg BIDx1, 72 h): 1.18 fold or %; Gapdh* mRNA (housekeeping or reference gene), Fold Increase Over Vehicle Control or Percent Reduction Compared to Vehicle Control (%) (150 mg/kg BIDx1, 72 h): 19.69 fold or %; Gusb* mRNA (housekeeping or reference gene), Fold Increase Over Vehicle Control or Percent Reduction Compared to Vehicle Control (%) (150 mg/kg BIDx1, 72 h): 1.27 fold or %; Hsp90ab1* mRNA (housekeeping or reference gene), Fold Increase Over Vehicle Control or Percent Reduction Compared to Vehicle Control (%) (150 mg/kg BIDx1, 72 h): 1.00 fold or %; MGDC* (housekeeping or reference gene), Fold Increase Over Vehicle Control or Percent Reduction Compared to Vehicle Control (%) (150 mg/kg BIDx1, 72 h): 1.53 fold or %; Trp63 mRNA, Fold Increase Over Vehicle Control or Percent Reduction Compared to Vehicle Control (%) (150 mg/kg BIDx1, 72 h): 1.67 fold or %; Trp73 mRNA, Fold Increase Over Vehicle Control or Percent Reduction Compared to Vehicle Control (%) (150 mg/kg BIDx1, 72 h): 1.00 fold or %; Wt1 mRNA, Fold Increase Over Vehicle Control or Percent Reduction Compared to Vehicle Control (%) (150 mg/kg BIDx1, 72 h): 21.51 fold or %; Zmat3 mRNA, Fold Increase Over Vehicle Control or Percent Reduction Compared to Vehicle Control (%) (150 mg/kg BIDx1, 72 h): 1.21 fold or %
